ChEMBL document CHEMBL3885861, “Open TG-GATES”

Species: Rattus norvegicus
Experiment: Open TG-GATES - Regimen: Daily Repeat
Assay type: toxicity, organism-based, Sprague-Dawley
Set-up: regimen Daily Repeat, gender Male, age 6 weeks
Settings: in vivo, po, 0 mg/kg, route gavage, dose level Control; for APTT / Bas / Eos / Fbg / Hb / Ht / Lym / MCH / MCHC / MCV / Mono / Neu / PT / Plat / RBC / Ret / WBC: tissue Blood; for KIDNEY_L / KIDNEY_R / KIDNEY_TOTAL: tissue Kidney; for LIVER: tissue Liver; for A/G / ALP / ALT / AST / BUN / CRE / Ca / Cl / DBIL / GLC / IP / K / LDH / Na / PL / RALB / TBIL / TC / TG / TP / gamma-GTP: tissue Plasma

Compound O=C(O)c1cc(/N=N/c2ccc(S(=O)(=O)Nc3ccccn3)cc2)ccc1O [SULFASALAZINE] has a TERMINAL_BW (72 h, time 3 day) of 237.4 g, an APTT (72 h, time 3 day) of 18.3 s and a Bas (72 h, time 3 day) of 0%. The Eos (72 h, time 3 day) was 1%, the Fbg (72 h, time 3 day) was 245.4 mg/dL and the Hb (72 h, time 3 day) was 13.3 g/dL. For the same compound, the Ht (72 h, time 3 day) was 38.5%, the Lym (72 h, time 3 day) was 78.2% and the MCH (72 h, time 3 day) was 22 pg. The MCHC (72 h, time 3 day) was 34.7%, the MCV (72 h, time 3 day) was 63.5 fL and the Mono (72 h, time 3 day) was 3%. It also gave a Neu (72 h, time 3 day) of 16.8%, a PT (72 h, time 3 day) of 12.4 s and a Plat (72 h, time 3 day) of 125.9 x10_4/uL. For the same compound, the RBC (72 h, time 3 day) was 607.8 x10_4/ul, the Ret (72 h, time 3 day) was 6.3% and the WBC (72 h, time 3 day) was 93.4 x10_2/uL. It also gave a KIDNEY_L (72 h, time 3 day) of 1 g, a KIDNEY_R (72 h, time 3 day) of 1 g and a KIDNEY_TOTAL (72 h, time 3 day) of 2 g. The LIVER (72 h, time 3 day) was 11.2 g, the A/G (72 h, time 3 day) was 1.4 and the ALP (72 h, time 3 day) was 938.8 IU/L. It also gave an ALT (72 h, time 3 day) of 39.8 IU/L, an AST (72 h, time 3 day) of 74.2 IU/L and a BUN (72 h, time 3 day) of 16.6 mg/dL. For the same compound, the CRE (72 h, time 3 day) was 0.4 mg/dL, the Ca (72 h, time 3 day) was 11 mg/dL and the Cl (72 h, time 3 day) was 102.6 meq/L. For the same compound, the DBIL (72 h, time 3 day) was 0.1 mg/dL, the GLC (72 h, time 3 day) was 207.4 mg/dL and the IP (72 h, time 3 day) was 7.3 mg/dL. It also gave a K (72 h, time 3 day) of 4 meq/L, an LDH (72 h, time 3 day) of 226.6 IU/L and a Na (72 h, time 3 day) of 140.6 meq/L. The PL (72 h, time 3 day) was 157 mg/dL, the RALB (72 h, time 3 day) was 3.4 g/dL and the TBIL (72 h, time 3 day) was 0.2 mg/dL. For the same compound, the TC (72 h, time 3 day) was 75.6 mg/dL, the TG (72 h, time 3 day) was 104 mg/dL and the TP (72 h, time 3 day) was 5.7 g/dL. It also gave a gamma-GTP (72 h, time 3 day) of 1.2 IU/L, a TERMINAL_BW ([…], time 7 day) of 263.5 g and a TERMINAL_BW ([…], time 14 day) of 308.2 g. The TERMINAL_BW ([…], time 28 day) was 377.2 g, the APTT ([…], time 7 day) was 19.2 s and the Bas ([…], time 7 day) was 0%. It also gave an Eos ([…], time 7 day) of 1%, a Fbg ([…], time 7 day) of 223.4 mg/dL and a Hb ([…], time 7 day) of 14.1 g/dL. For the same compound, the Ht ([…], time 7 day) was 41.1%, the Lym ([…], time 7 day) was 81.6% and the MCH ([…], time 7 day) was 21.5 pg. It also gave an MCHC ([…], time 7 day) of 34.2%, an MCV ([…], time 7 day) of 62.8 fL and a Mono ([…], time 7 day) of 2.6%. The Neu ([…], time 7 day) was 14.2%, the PT ([…], time 7 day) was 12.3 s and the Plat ([…], time 7 day) was 129.3 x10_4/uL. For the same compound, the RBC ([…], time 7 day) was 655 x10_4/ul, the Ret ([…], time 7 day) was 5.5% and the WBC ([…], time 7 day) was 126 x10_2/uL. The APTT ([…], time 14 day) was 19.7 s, the Bas ([…], time 14 day) was 0% and the Eos ([…], time 14 day) was 1%. It also gave a Fbg ([…], time 14 day) of 229.4 mg/dL, a Hb ([…], time 14 day) of 14.7 g/dL and a Ht ([…], time 14 day) of 41.7%. The Lym ([…], time 14 day) was 78.4%, the MCH ([…], time 14 day) was 20.9 pg and the MCHC ([…], time 14 day) was 35.3%. The MCV ([…], time 14 day) was 59.2 fL, the Mono ([…], time 14 day) was 2.4% and the Neu ([…], time 14 day) was 16.8%. For the same compound, the PT ([…], time 14 day) was 12.2 s, the Plat ([…], time 14 day) was 115.1 x10_4/uL and the RBC ([…], time 14 day) was 703.6 x10_4/ul. For the same compound, the Ret ([…], time 14 day) was 3.9%, the WBC ([…], time 14 day) was 92.7 x10_2/uL and the APTT ([…], time 28 day) was 20.6 s. It also gave a Bas ([…], time 28 day) of 0%, an Eos ([…], time 28 day) of 0.8% and a Fbg ([…], time 28 day) of 217.8 mg/dL. For the same compound, the Hb ([…], time 28 day) was 15.6 g/dL, the Ht ([…], time 28 day) was 43.1% and the Lym ([…], time 28 day) was 83.8%. For the same compound, the MCH ([…], time 28 day) was 20.1 pg, the MCHC ([…], time 28 day) was 36.2% and the MCV ([…], time 28 day) was 55.6 fL. The Mono ([…], time 28 day) was 1.4%, the Neu ([…], time 28 day) was 12.4% and the PT ([…], time 28 day) was 12.5 s. For the same compound, the Plat ([…], time 28 day) was 98.7 x10_4/uL, the RBC ([…], time 28 day) was 775.4 x10_4/ul and the Ret ([…], time 28 day) was 2.3%. It also gave a WBC ([…], time 28 day) of 97.9 x10_2/uL, a KIDNEY_L ([…], time 7 day) of 1.1 g and a KIDNEY_R ([…], time 7 day) of 1.1 g. For the same compound, the KIDNEY_TOTAL ([…], time 7 day) was 2.2 g, the KIDNEY_L ([…], time 14 day) was 1.2 g and the KIDNEY_R ([…], time 14 day) was 1.2 g. For the same compound, the KIDNEY_TOTAL ([…], time 14 day) was 2.4 g, the KIDNEY_L ([…], time 28 day) was 1.3 g and the KIDNEY_R ([…], time 28 day) was 1.3 g. For the same compound, the KIDNEY_TOTAL ([…], time 28 day) was 2.5 g, the LIVER ([…], time 7 day) was 12 g and the LIVER ([…], time 14 day) was 13.3 g. For the same compound, the LIVER ([…], time 28 day) was 14.8 g, the A/G ([…], time 7 day) was 1.4 and the ALP ([…], time 7 day) was 884.4 IU/L. The ALT ([…], time 7 day) was 33 IU/L, the AST ([…], time 7 day) was 64.6 IU/L and the BUN ([…], time 7 day) was 16.8 mg/dL. It also gave a CRE ([…], time 7 day) of 0.4 mg/dL, a Ca ([…], time 7 day) of 10.7 mg/dL and a Cl ([…], time 7 day) of 103.4 meq/L. It also gave a DBIL ([…], time 7 day) of 0.092 mg/dL, a GLC ([…], time 7 day) of 233.6 mg/dL and an IP ([…], time 7 day) of 7.5 mg/dL. The K ([…], time 7 day) was 3.5 meq/L, the LDH ([…], time 7 day) was 218.6 IU/L and the Na ([…], time 7 day) was 140.8 meq/L. The PL ([…], time 7 day) was 160.4 mg/dL, the RALB ([…], time 7 day) was 3.4 g/dL and the TBIL ([…], time 7 day) was 0.1 mg/dL. For the same compound, the TC ([…], time 7 day) was 78.8 mg/dL, the TG ([…], time 7 day) was 99.8 mg/dL and the TP ([…], time 7 day) was 5.9 g/dL. For the same compound, the gamma-GTP ([…], time 7 day) was 1.2 IU/L, the A/G ([…], time 14 day) was 1.3 and the ALP ([…], time 14 day) was 900.6 IU/L. It also gave an ALT ([…], time 14 day) of 43.4 IU/L, an AST ([…], time 14 day) of 76.6 IU/L and a BUN ([…], time 14 day) of 18.6 mg/dL. The CRE ([…], time 14 day) was 0.5 mg/dL, the Ca ([…], time 14 day) was 10.6 mg/dL and the Cl ([…], time 14 day) was 103.4 meq/L. For the same compound, the DBIL ([…], time 14 day) was 0.1 mg/dL, the GLC ([…], time 14 day) was 189.8 mg/dL and the IP ([…], time 14 day) was 6.4 mg/dL. The K ([…], time 14 day) was 3.8 meq/L, the LDH ([…], time 14 day) was 292 IU/L and the Na ([…], time 14 day) was 140.4 meq/L. For the same compound, the PL ([…], time 14 day) was 155 mg/dL, the RALB ([…], time 14 day) was 3.3 g/dL and the TBIL ([…], time 14 day) was 0.2 mg/dL. It also gave a TC ([…], time 14 day) of 63.2 mg/dL, a TG ([…], time 14 day) of 175.8 mg/dL and a TP ([…], time 14 day) of 6 g/dL. It also gave a gamma-GTP ([…], time 14 day) of 1.2 IU/L, an A/G ([…], time 28 day) of 1.3 and an ALP ([…], time 28 day) of 718.2 IU/L. It also gave an ALT ([…], time 28 day) of 49.2 IU/L, an AST ([…], time 28 day) of 80.6 IU/L and a BUN ([…], time 28 day) of 17.8 mg/dL. The CRE ([…], time 28 day) was 0.5 mg/dL, the Ca ([…], time 28 day) was 10.3 mg/dL and the Cl ([…], time 28 day) was 103.6 meq/L. It also gave a DBIL ([…], time 28 day) of 0.1 mg/dL, a GLC ([…], time 28 day) of 217.6 mg/dL and an IP ([…], time 28 day) of 6.1 mg/dL. The K ([…], time 28 day) was 3.7 meq/L, the LDH ([…], time 28 day) was 287.2 IU/L and the Na ([…], time 28 day) was 141.2 meq/L. The PL ([…], time 28 day) was 148.4 mg/dL, the RALB ([…], time 28 day) was 3.4 g/dL and the TBIL ([…], time 28 day) was 0.2 mg/dL. The TC ([…], time 28 day) was 68.8 mg/dL, the TG ([…], time 28 day) was 151.4 mg/dL and the TP ([…], time 28 day) was 6.2 g/dL. For the same compound, the gamma-GTP ([…], time 28 day) was 0.8 IU/L.
